Values quoted from earlier work as cited in patent publication US20250011247A1, “GYPSUM HARDENED PRODUCT” (KAO CORPORATION, priority 2022, published 2025).

Details: 1-octanol/water; measured value if any, otherwise C log P calculated by C LOG P v 4.01

## CCCCC=O [pentanal]
  log P: 1.31
